In patent publication US8106055B2, “Substituted amide compounds” (Gruenenthal GmbH, priority 2007, dated 2012):
Read-outs that look alike come from different tables or passages of the source.

What was measured:
[1] = molecular target: T1, human μ opiate receptor (Homo sapiens, UniProt P35372); test: Affinity for the human μ opiate receptor ([3H]-naloxone displacement, CHO-K1 receptor membrane preparation, SPA); type: binding
T1 construct: purchased PerkinElmer Life Sciences, Zaventem, Belgium RB-HOM; host or cells: CHO-K1 cells (membrane preparation)
Method in brief: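 Readout is percent displacement of [3H]-naloxone (1 nmol/l) from human μ receptor in CHO-K1 membranes, measured at 1 μmol/l compound. Incubation runs 90 minutes at room temperature with WGA-SPA beads in Tris-HCl/BSA buffer; non-specific binding is defined with 100 μmol/l naloxone.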

[2] = molecular target: T2, serotonin (5-HT) reuptake (Rattus norvegicus, UniProt P31652); test: Inhibition of serotonin (5HT) reuptake in synaptosomes from rat brain; type: biochemical
T2 construct: synaptosomes are freshly isolated from areas of the rat brain; from tissue; host or cells: rat brain synaptosomes (P2 fraction)
Description: Binding data of the compounds on the μ opioid receptor and data on the inhibition of reuptake of serotonin (5-HT) are given in Table 1. The data for the μ receptor were measured at a test concentration of 1 μM, and those for the serotonin reuptake at 10 μM. The values are stated in % inhibition.
Inhibition of Serotonin (5HT) Reuptake
In order to be able to carry out these in vitro studies, synaptosomes are freshly isolated from areas of the rat brain. In each case a so-called “P2” fraction prepared in accordance with the instructions of Gray and Whittaker (E. G. Gray and V. P. Whittaker (1962) J. Anat. 76, 79-88) is prepared. For the NA uptake, these vesicular particles are isolated from the hypothalamus of male rat brains.
A detailed description of the method can be found in the literature (M. Ch. Frink, H.-H. Hennies, W. Englberger, M. Haurand and B. Wilffert (1996) Arzneim.-Forsch./Drug Res. 46 (III), 11, 1029-1036).

[3] = molecular target: T3, human bradykinin 1 receptor (B1R) (Homo sapiens, UniProt P46663); test: Functional investigation on the human bradykinin 1 receptor (B1R), Ca2+ FLIPR assay in CHO K1 hB1R cells; type: cell-based; conditions: for B1R Ant. h [10 μM] % Inhibition: B1R antagonism human
T3 construct: expressed in transfected cells; host or cells: CHO K1 cells
T3 sequence (P46663 1-353): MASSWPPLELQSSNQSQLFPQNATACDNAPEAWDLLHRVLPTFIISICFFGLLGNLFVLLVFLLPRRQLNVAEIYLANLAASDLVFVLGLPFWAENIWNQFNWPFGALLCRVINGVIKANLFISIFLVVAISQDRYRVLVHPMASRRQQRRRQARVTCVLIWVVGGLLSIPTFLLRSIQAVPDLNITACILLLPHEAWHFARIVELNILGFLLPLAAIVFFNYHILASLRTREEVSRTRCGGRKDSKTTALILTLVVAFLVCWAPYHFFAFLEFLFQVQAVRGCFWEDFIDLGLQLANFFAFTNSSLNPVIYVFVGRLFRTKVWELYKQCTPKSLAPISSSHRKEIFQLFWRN
Method in brief: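 Stably transfected CHO K1 cells loaded with Fluo-4; FLIPR Ca2+ fluorescence peak (ex 488/em 540 nm). Compound added first (agonism vs Lys-Des-Arg9-bradykinin ≥50 nM human, Des-Arg9-bradykinin 10 μM rat), then after 10-20 min agonist at EC80; antagonism as % inhibition, IC50 from concentration series, n=2-3, N≥2.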

[4] = test concentration of 1 μM, read-out: μ (binding on the μ opioid receptor, % inhibition)
[5] = test concentration of 10 μM, read-out: 5-HT (inhibition of reuptake of serotonin, % inhibition)
[6] = CHO-K1, read-out: B1R Ant. h [10 μM] % Inhibition
[7] = CHO-K1, B1R antagonism human, test substance 10 μM, Ca2+ FLIPR, CHO K1 hB1R cells, read-out: B1R Ant. h [10 μM] % Inhibition
[8] = test substance 10 μM, Ca2+ FLIPR, CHO K1 hB1R cells
[9] = 1.5 h, Table 2, test concentration 1 μM, read-out: μ receptor
[10] = Table 2, test concentration 10 μM, read-out: 5-HT reuptake

T2 sequence (P31652 whole entry): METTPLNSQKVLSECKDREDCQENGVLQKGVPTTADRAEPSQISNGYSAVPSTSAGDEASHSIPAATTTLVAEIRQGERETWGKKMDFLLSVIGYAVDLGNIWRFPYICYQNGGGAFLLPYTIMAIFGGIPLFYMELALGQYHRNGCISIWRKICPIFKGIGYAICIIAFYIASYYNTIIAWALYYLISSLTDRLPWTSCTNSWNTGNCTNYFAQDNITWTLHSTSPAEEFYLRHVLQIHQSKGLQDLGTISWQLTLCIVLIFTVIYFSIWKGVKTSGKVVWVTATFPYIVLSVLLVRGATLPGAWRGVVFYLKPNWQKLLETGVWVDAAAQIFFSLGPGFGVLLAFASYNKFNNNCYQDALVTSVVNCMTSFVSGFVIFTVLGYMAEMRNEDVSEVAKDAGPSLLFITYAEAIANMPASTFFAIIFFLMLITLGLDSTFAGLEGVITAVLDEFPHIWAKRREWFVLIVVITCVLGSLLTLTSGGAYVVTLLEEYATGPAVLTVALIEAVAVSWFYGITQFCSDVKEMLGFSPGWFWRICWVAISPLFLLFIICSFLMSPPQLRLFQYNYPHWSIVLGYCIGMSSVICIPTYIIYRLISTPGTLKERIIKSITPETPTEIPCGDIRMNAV
T1 sequence (P35372 whole entry): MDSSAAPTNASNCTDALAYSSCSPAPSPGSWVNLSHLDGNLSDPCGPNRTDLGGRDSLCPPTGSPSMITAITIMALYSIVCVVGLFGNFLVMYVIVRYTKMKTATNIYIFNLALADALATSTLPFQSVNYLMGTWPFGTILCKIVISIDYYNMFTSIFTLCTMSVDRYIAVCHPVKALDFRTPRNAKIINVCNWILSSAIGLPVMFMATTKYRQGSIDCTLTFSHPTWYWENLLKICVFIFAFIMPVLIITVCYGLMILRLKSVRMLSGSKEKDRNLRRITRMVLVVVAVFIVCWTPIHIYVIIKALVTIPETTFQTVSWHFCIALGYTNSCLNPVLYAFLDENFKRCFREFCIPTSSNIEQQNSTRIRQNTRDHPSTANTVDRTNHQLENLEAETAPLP

## CN(C)C(c1ccccc1)C1CCC(NC(=O)COCCN(Cc2ccccc2)S(=O)(=O)c2ccccc2)CC1 (stereo not drawn) [Example 51, 2-(2-(N-benzylphenylsulfonamido)ethoxy)-N-(4-((dimethylamino)(phenyl)methyl)cyclohexyl)acetamide]
[1]; [4]
  inhibition at 1 µM: 95%
[2]; [5]
  inhibition at 10 µM: 88%
[3]; [6]
  inhibition at 10 µM: 9%

## COc1cc(C)c(S(=O)(=O)N(C)CCOCC(=O)NCC2CCC(C(c3ccccc3)N(C)C)CC2)c(C)c1C (stereo not drawn) [Example 40, N-((4-((dimethylamino)(phenyl)methyl)cyclohexyl)methyl)-2-(2-(4-methoxy-N,2,3,6-tetramethylphenylsulfonamido)ethoxy)acetamide]
[1]; [4]
  inhibition at 1 µM: 96%
[2]; [5]
  inhibition at 10 µM: 84%
[3]; [7]
  inhibition at 10 µM: 99%

## COc1ccc(S(=O)(=O)N2CCCCC2COCC(=O)NC2CCC(C(c3ccccc3)N(C)C)CC2)c(OC)c1 (stereo not drawn) [Example 187, 2-((1-(2,4-dimethoxyphenylsulfonyl)piperidin-2-yl)methoxy)-N-(4-((dimethylamino)(phenyl)methyl)cyclohexyl)acetamide]
[1]; [4]
  inhibition at 1 µM: 79%
[2]; [5]
  inhibition at 10 µM: 81%
[3]; [7]
  inhibition at 10 µM: -6%

## CN(C)C(c1ccccc1)C1CCC(NC(=O)COCc2c(N(C)S(=O)(=O)c3ccc(Cl)c(Cl)c3)sc3c2CCCC3)CC1 (stereo not drawn) [Example 369]
[1]; test concentration of 1 μM
  μ (binding on the μ opioid receptor, % inhibition): 66%
[2]; test concentration of 10 μM
  5-HT (inhibition of reuptake of serotonin, % inhibition): 66%
[3]; [8]
  B1R Ant. h [10 μM] % Inhibition: 21%

## CN(C)C(c1cccs1)C1CCC(CCNC(=O)COCCN(C)S(=O)(=O)c2c(F)c(F)c(F)c(F)c2F)CC1 (stereo not drawn) [Example 465]
[1]; test concentration of 1 μM
  μ (binding on the μ opioid receptor, % inhibition): 48%
[2]; test concentration of 10 μM
  5-HT (inhibition of reuptake of serotonin, % inhibition): 72%
[3]; [8]
  B1R Ant. h [10 μM] % Inhibition: −3%

## COc1cc(C)c(S(=O)(=O)N(C)CCOCC(=O)NC2CCC(C(c3cccc(F)c3)N(C)C)CC2)c(C)c1C (stereo not drawn) [Example 159, N-(4-((dimethylamino)(3-fluorophenyl)methyl)cyclohexyl)-2-(2-(4-methoxy-N,2,3,6-tetramethylphenylsulfonamido)ethoxy)acetamide]
[1]; [4]
  inhibition at 1 µM: 85%
[2]; [5]
  inhibition at 10 µM: 72%
[3]; [7]
  inhibition at 10 µM: 91%

## COc1ccc(S(=O)(=O)N2CCCCC2COCC(=O)NC2CCC(C(c3ccccc3)N(C)C)CC2)cc1OC (stereo not drawn) [Example 198, 2-((1-(3,4-dimethoxyphenylsulfonyl)piperidin-2-yl)methoxy)-N-(4-((dimethylamino)(phenyl)methyl)cyclohexyl)acetamide]
[1]; [4]
  inhibition at 1 µM: 78%
[2]; [5]
  inhibition at 10 µM: 88%
[3]; [7]
  inhibition at 10 µM: -12%

## CN(C)C(c1ccccc1)C1CCC(NC(=O)COC2CCN(S(=O)(=O)c3ccccc3)CC2)CC1 (stereo not drawn) [Example 257]
[1]; test concentration of 1 μM
  μ (binding on the μ opioid receptor, % inhibition): 74%
[2]; test concentration of 10 μM
  5-HT (inhibition of reuptake of serotonin, % inhibition): 86%
[3]; [8]
  B1R Ant. h [10 μM] % Inhibition: 26%

## CN(C)C(c1ccccc1)C1CCC(NC(=O)COc2ccccc2N(C)S(=O)(=O)c2ccc(Cl)c(Cl)c2)CC1 (stereo not drawn) [Example 166, 2-(2-(3,4-dichloro-N-methylphenylsulfonamido)phenoxy)-N-(4-((dimethylamino)(phenyl)methyl)cyclohexyl)acetamide]
[1]; [4]
  inhibition at 1 µM: 87%
[2]; [5]
  inhibition at 10 µM: 91%
[3]; [7]
  inhibition at 10 µM: 74%

## CN(CCOCC(=O)NC1CCC(C(c2ccccc2)N2CCCCC2)CC1)S(=O)(=O)c1c(Cl)cc(Cl)cc1Cl (stereo not drawn) [Example 601, 2-{2-[methyl-(2,4,6-trichlorobenzenesulfonyl)-amino]-ethoxy}-N-[4-(phenylpiperidin-1-yl-methyl)-cyclohexyl]-acetamide]
[1]; [9]
  inhibition at 1 µM: 45%
[2]; [10]
  inhibition at 10 µM: 75%
[3]; [7]
  inhibition at 10 µM: 78%

## O=C(COCCN(C1CC1)S(=O)(=O)c1c(Cl)cc(Cl)cc1Cl)NC1CCC(C(c2ccccc2)N2CCCCC2)CC1 (stereo not drawn) [Example 602, 2-{2-[cyclopropyl-(2,4,6-trichlorobenzenesulfonyl)-amino]-ethoxy}-N-[4-(phenylpiperidin-1-ylmethyl)-cyclohexyl]-acetamide]
[1]; [9]
  inhibition at 1 µM: 55%
[2]; [10]
  inhibition at 10 µM: 51%
[3]; [7]
  inhibition at 10 µM: 81%

## COc1ccc(S(=O)(=O)N2CCCCC2COCC(=O)NC2CCC(C(c3ccccc3)N(C)C)CC2)cc1 (stereo not drawn) [Example 154, N-(4-((dimethylamino)(phenyl)methyl)cyclohexyl)-2-((1-(4-methoxyphenylsulfonyl)piperidin-2-yl)methoxy)acetamide]
[1]; [4]
  inhibition at 1 µM: 83%
[2]; [5]
  inhibition at 10 µM: 90%
[3]; [6]
  inhibition at 10 µM: 69%

## CN(C)C(c1ccccc1)C1CCC(NC(=O)COCCN(C2CC2)S(=O)(=O)c2c(Cl)cc(Cl)cc2Cl)CC1 (stereo not drawn) [Example 600, 2-{2-[cyclopropyl-(2,4,6-trichlorobenzenesulfonyl)-amino]-ethoxy}-N-[4-(dimethylaminophenylmethyl)-cyclohexyl]-acetamide]
[1]; [9]
  inhibition at 1 µM: 95%
[2]; [10]
  inhibition at 10 µM: 60%
[3]; [7]
  inhibition at 10 µM: 101%

## CN(C)C(c1ccccc1)C1CCC(NC(=O)COCCN(C)S(=O)(=O)c2c(Cl)cc(Cl)cc2Cl)CC1 (stereo not drawn) [Example 598, N-[4-(dimethylaminophenylmethyl)-cyclohexyl]-2-{2-[methyl-(2,4,6-trichlorobenzenesulfonyl)-amino]-ethoxy}-acetamide]
[1]; [9]
  inhibition at 1 µM: 91%
[2]; [10]
  inhibition at 10 µM: 75%
[3]; [8]
  B1R Ant. h [10 μM] % Inhibition: 86%

## CN(Cc1ccccc1)C(c1ccccc1)C1CCC(NC(=O)COCCN(C)S(=O)(=O)c2c(Cl)cc(Cl)cc2Cl)CC1 (stereo not drawn) [Example 599, N-{4-[(benzylmethylamino)-phenylmethyl]-cyclohexyl}-2-{2-[methyl-(2,4,6-trichlorobenzenesulfonyl)-amino]-ethoxy}-acetamide]
[1]; [9]
  inhibition at 1 µM: 91%
[2]; [10]
  inhibition at 10 µM: 33%
[3]; [7]
  inhibition at 10 µM: -6%

## Cc1cc(C)c(S(=O)(=O)N(C)CCOCC(=O)NCCC2CCC(C(c3ccc(F)cc3)N(C)C)CC2)c(C)c1 (stereo not drawn) [Example 417]
[1]; test concentration of 1 μM
  μ (binding on the μ opioid receptor, % inhibition): 60%
[2]; test concentration of 10 μM
  5-HT (inhibition of reuptake of serotonin, % inhibition): 91%
[3]; [8]
  B1R Ant. h [10 μM] % Inhibition: 100%

## CN(C)C(c1ccccc1)C1CCC(NC(=O)COCC2CCCCN2S(=O)(=O)c2ccc(Cl)cc2)CC1 (stereo not drawn) [Example 95, 2-((1-(4-chlorophenylsulfonyl)piperidin-2-yl)methoxy)-N-(4-((dimethylamino)(phenyl)methyl)cyclohexyl)acetamide]
[1]; [4]
  inhibition at 1 µM: 91%
[2]; [5]
  inhibition at 10 µM: 84%
[3]; [7]
  inhibition at 10 µM: 22%

## CN(C)C(c1ccccc1)C1CCC(NC(=O)COCC2CCCCN2S(=O)(=O)c2cccc(Cl)c2Cl)CC1 (stereo not drawn) [Example 24, 2-((1-(2,3-dichlorophenylsulfonyl)piperidin-2-yl)methoxy)-N-(4-((dimethylamino)(phenyl)methyl)cyclohexyl)acetamide]
[1]; [4]
  inhibition at 1 µM: 97%
[2]; [5]
  inhibition at 10 µM: 67%
[3]; [7]
  inhibition at 10 µM: 99%

## COc1cc(C)c(S(=O)(=O)N(C)CCOCC(=O)NCC2CCC(C(CCc3ccccc3)N(C)C)CC2)c(C)c1C (stereo not drawn) [Example 453]
[1]; test concentration of 1 μM
  μ (binding on the μ opioid receptor, % inhibition): 46%
[2]; test concentration of 10 μM
  5-HT (inhibition of reuptake of serotonin, % inhibition): 89%
[3]; [8]
  B1R Ant. h [10 μM] % Inhibition: 97%

## COc1ccc(S(=O)(=O)N2CCCCC2CCOCC(=O)NC2CCC(C(c3ccccc3)N(C)C)CC2)cc1 (stereo not drawn) [Example 3, N-(4-((dimethylamino)(phenyl)methyl)cyclohexyl)-2-(2-(1-(4-methoxyphenylsulfonyl)piperidin-2-yl)ethoxy)acetamide]
[1]; [4]
  inhibition at 1 µM: 99%
[2]; [5]
  inhibition at 10 µM: 92%
[3]; [7]
  inhibition at 10 µM: 69%
